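Cultured in 96-well plates, cells were exposed to test compound for 48 hours across five concentrations. The concentration for full growth arrest is given as TGI.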

TGI data for 14 compounds are collected here from PubChem BioAssay (NCI).

Common to all, as to assay: growth of human tumour cells (NCI), 48 h
For assay [1], the system named is M14 melanoma.
The subject of assay [2] is OVCAR-8 ovarian.
Assay [3] relates to COLO 205 colon.
The subject of assay [4] is HCT-15 colon.
In assay [5] the test system is ACHN renal.
Assay [6] relates to HT29 colon.
For assay [7], the system named is RPMI-8226 leukemia.
In assay [8] the test system is DU-145 prostate.
For assay [9], the system named is OVCAR-4 ovarian.
In assay [10] the test system is RXF 393 renal.

For the compound `CO[C@H]1O[C@@H]2OC3(C)CCC4[C@H](C)CCC([C@H]1C)[C@]42OO3` (stereo not given in full), the TGI in [1], in assay [2], in assay [3], in assay [4], in assay [5] and in [6] was more than 100 µM each time. Also, the TGI in assay [7], in [8], in [9] and in assay [10] was more than 100 µM throughout.

On to `O=c1oc2ccc3ccccc3c2cc1-c1cn2c(n1)sc1ccccc12`, for which the TGI in assay [1], in assay [2], in assay [3], in assay [4], in assay [5] and in assay [6] was more than 100 µM in each case. Also, the TGI in assay [7], in [8], in [9] and in assay [10] was more than 100 µM in each case.

On to `O=C1CCSc2nc(-c3ccc4c(c3)OCO4)nn21`, for which the TGI in assay [1], in [2], in assay [3], in [4], in assay [5] and in [6] was more than 10 µM each time. For the same compound, the TGI in assay [7], in assay [8], in assay [9] and in assay [10] was more than 10 µM throughout.

Turning to `Cc1c(-c2nc(N)c(C#N)c(N)c2C#N)c(=O)oc2ccccc12`, the TGI in assay [1], in [2], in assay [3], in assay [4], in [5] and in assay [6] was more than 100 µM in each case. The TGI in assay [7] was 62.4 µM; in [8], more than 100 µM; in [9] it was more than 100 µM; in assay [10], more than 100 µM.

With `O=C(NCCc1ccccc1)c1cc(/C=C/c2cc(O)ccc2O)ccc1O`, the TGI in assay [1] was 15.9 µM; in assay [2], 16.3 µM; in assay [3], 17.6 µM; in [4], 7.42 µM; in assay [5] it was 5.59 µM; in assay [6], more than 50 µM. Besides, the TGI in assay [7] is 7.21 µM; in [8], 28.1 µM; in assay [9] it was 3.76 µM; in assay [10], 2.93 µM.

Consider `O=C1CCN2C(=N1)Sc1ccccc12`, for which the TGI in assay [1], in [2], in assay [3], in [4], in assay [5] and in [6] was more than 100 µM in each case. For the same compound, the TGI in assay [7], in [8], in assay [9] and in assay [10] was more than 100 µM in each case.

For the compound `CC[C@@H]1CC[C@@H]2[C@H](CC[C@]3(C)[C@@H](OC(C)=O)CC[C@@H]23)[C@H]1C(=O)OC`, the TGI in assay [1] was 42.3 µM; in assay [2], 76.9 µM; in assay [3] it was 29.5 µM; in [4], 49.5 µM; in [5], more than 100 µM; in assay [6], 67.2 µM. For the same compound, the TGI is 46.5 µM in assay [7], 86.1 µM in [8], 52.8 µM in [9] and 49.8 µM in assay [10].

With `CN1CCN(c2ccc3[nH]c(C4=C(O)C(=O)[C@@H]5C(=C4O)N=C(CO)N5C)nc3n2)CC1`, the TGI in assay [1], in assay [2], in [3], in assay [4], in assay [5] and in assay [6] was more than 100 µM throughout. The TGI in assay [7], in assay [8], in assay [9] and in assay [10] was more than 100 µM throughout.

As to `CCC(c1ccc(OC)cc1)C1NC(=S)NC1=O` (stereo not given), the TGI in assay [1], in assay [2], in [3], in assay [4], in assay [5] and in assay [6] was more than 50 µM throughout. Also, the TGI in assay [7], in assay [8], in assay [9] and in assay [10] was more than 50 µM in each case.

Regarding `O=C(CCc1ccc(O)c(O)c1)NCCc1cc(O)c(O)c(O)c1`, the TGI in assay [1] was 48.1 µM; in assay [2], 36.2 µM; in [3] it was more than 100 µM; in assay [4] it was 32.1 µM; in assay [5] it was more than 100 µM; in [6] it was 35.4 µM. Besides, the TGI was more than 100 µM in assay [7], more than 100 µM in assay [8], 34.5 µM in assay [9] and more than 100 µM in assay [10].

Take `COC(=O)c1ccc(C)cc1C1CN=NC12Cc1cc(C)ccc1C2=O` (stereo not given): the TGI was 36.9 µM in assay [1]; more than 100 µM in assay [2]; 19.1 µM in [3]; more than 100 µM in [4]; more than 100 µM in assay [5]; 15.2 µM in assay [6]. Also, the TGI is 66.2 µM in assay [7], 97.6 µM in [8], 98.7 µM in assay [9] and more than 71.6 µM in [10].

Turning to `OCC1OC(n2cnc3c(SCc4ccccc4)ncnc32)C(O)C1O` (stereo not given), the TGI in [1] was more than 100 µM; in [2] it was 37.4 µM; in [3], more than 94.9 µM; in assay [4] it was more than 100 µM; in assay [5], more than 100 µM; in assay [6], more than 100 µM. Further, the TGI in [7], in assay [8], in assay [9] and in assay [10] was more than 100 µM each time.

Take `COCC12CCC(OC)C34C5CC6(O)C(OC)C=C(C5C6OC(=O)c5ccccc5)C(C(OC)C13)C4N(C)C2` (stereo not given): the TGI in [1], in assay [2], in assay [3], in assay [4], in assay [5] and in [6] was more than 100 µM each time. In addition, the TGI in assay [7], in [8], in [9] and in [10] was more than 100 µM throughout.

Turning to `CCCn1c(=O)c2nn3c(=O)n(CCC)c(=O)c3nn2c1=O`, the TGI in [1], in assay [2], in assay [3], in assay [4], in assay [5] and in [6] was more than 100 µM in each case. The TGI in assay [7], in assay [8], in assay [9] and in [10] was more than 100 µM in each case.
